{
  "source": "patent US6962909B2",
  "about": "“Treatment of neovascularization disorders with squalimine” (Genaera Corporation, priority 1995, dated 2005); on Effect on endothelial cord formation: key: + = Inhibition of angiogenesis; − = No inhibition of angiogenesis; T = Toxic; *= cell rounding @ 10 µg/ml",
  "key": {"[1]": {"tested_on": "Human coronary artery smooth muscle cells", "assay": "In vitro growth of coronary artery smooth muscle", "assay_type": "cell-based", "excerpt": "As set forth in Table 7 below, all malignant tumors evaluated in tissue culture, endothelial cells and vascular smooth muscle cells were sensitive to inhibition. Thus, compound 1436 has application in the control of growth factor dependent proliferation of many types of tissue.\nAminosterols of the invention may also have utility in inhibiting the growth factor mediated proliferation of smooth muscle within the artery. Following coronary angioplasty, reocclusion commonly occurs, secondary to reparative proliferation of the vascular smooth muscle within the wall of the surgically manipulated blood vessel. This process generally takes place over the course of 7-10 days. To evaluate whether an agent could prevent the growth factor mediated proliferation of smooth muscle within the artery, compound 1436 was evaluated in vitro for its effect on the proliferation of human coronary artery smooth muscle. Results for compound 1436 are shown in FIG. 13, and those for squalamine are shown in FIG. 14, with FIG. 15 being a composite logarithmic plot."}, "[2]": {"tested_on": "HIV clinical isolate", "assay": "HIV replication in PHA-stimulated lymphocytes (P-24 antigen Elisa)", "assay_type": "cell-based", "design": "P-24 Elisa: unit not given here", "settings": "for P-24 Elisa: 7 days", "protocol": "(§1) PHA-stimulated lymphocytes were inoculated with a clinical isolate of HIV at a multiplicity of infection of […]. Fresh lymphocytes were obtained and stimulated with PHA and IL-2. After 3 days, 1000 TCID of virus-(HIV clinical isolate) were applied for 1 hour and there was a M.O.I. of 1:10. The cells were washed and in a dose response fashion, and drug in media was applied. After 3 days, the supernatant was exchanged with ½ volume of fresh media and ½ the volume of fresh drug. After 7 days, detergent was added, and HIV P-24 Antigen was determined by Elisa. Viability of the lymphocytes was evaluated along with appearance of the viral gene product p24."}, "[3]": {"tested_on": "PHA-stimulated lymphocytes", "assay": "Viability of lymphocytes in the HIV replication test", "assay_type": "cell-based", "protocol": "as §1"}, "[4]": {"assay": "Growth and weight gain in normal growing mice", "assay_type": "in vivo", "settings": "C57B mice", "protocol": "Animals were dosed QTD (i.p.) starting on Day 1. […] Animals receiving 5 mg/kg QTD experienced about a 50% reduction in growth, compared to untreated controls, while animals receiving 1 mg/kg QTD were affected by about 10%. […] They appeared very much like hypophysectamized animals might appear."}, "[5]": {"assay": "Arterial pressure in catheterized rat", "assay_type": "in vivo", "protocol": "A 200-g rat was catheterized in the right carotid artery, and the compound was introduced over a ten-second period to a total dosage of 5 mg/kg. Within 30 seconds, the mean arterial pressure had fallen from about 100 mm Hg to about 70 mm Hg, with a marked reduction in pulse pressure from about 40 mm to about 10 mm. […] If cardiac output was basically unaffected, reduction in blood pressure would have resulted principally from a reduction in system resistance.\nAt that time, 40 μg of noradrenaline was introduced."}, "[6]": {"tested_on": "heart of a juvenile Xenopus laevis frog", "assay": "Isolated frog heart, persistence of beating ex vivo", "settings": "10 μg/ml; Krebs-Ringer buffer with adrenaline 50 μg/ml; without compound about one hour", "protocol": "To determine if compound 1436 has such utility, the following experiment was performed. The heart of a juvenile Xenopus laevis frog was dissected from the living animal. The heart was placed into a Petri dish containing Krebs-Ringer buffer with adrenaline 50 μg/ml, and examined with the naked eye. At room temperature, the heart continued beating in a coordinated fashion (atrial beat followed by ventricular beat) for about one hour. In the presence of 10 μg/ml of compound 1436, spontaneous beating persisted up to 24 hours."}, "[7]": {"tested_on": "bovine pulmonary endothelial cells", "assay": "Cell growth with membrane-active agents (absorbance at 600 nm)", "assay_type": "cell-based", "settings": "1 μg/ml", "protocol": "(§2) Cell growth was measured by absorbance at 600 nm."}, "[8]": {"tested_on": "human epithelial cell line MCF 10A", "assay": "Cell growth with membrane-active agents (absorbance at 600 nm)", "assay_type": "cell-based", "settings": "10 μg/ml", "protocol": "as §2"}, "[9]": {"tested_on": "human foreskin fibroblasts", "assay": "Cell growth with membrane-active agents (absorbance at 600 nm)", "assay_type": "cell-based", "settings": "10 μg/ml", "protocol": "as §2"}, "[10]": {"tested_on": "human microvascular cells", "assay": "Endothelial cord formation assay", "assay_type": "cell-based", "summary_of_the_method": "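Human microvascular endothelial cells plated on collagen matrix with VEGF and basic fibroblast growth factor; compound effect assessed on resulting cord-like tubular structures.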"}, "[11]": {"tested_on": "human umbilical venous endothelial cells", "assay": "LPS/TNF-α-induced neutrophil adherence to endothelial cells", "assay_type": "cell-based", "settings": "squalamine 10 μg, 1.0 μg or 0.1 μg; three subjects", "protocol": "To determine if squalamine inhibited this particular endothelial cell function, standard adhesion assays were performed as outlined in Gamble et al., J. Imm. Methods 109, 1988, 175-184. […] In these experiments, approximately 2×10^5 human umbilical venous cells (passage 2-6) were plated per well. The cells were grown in serum-free media overnight. For induction, either TNF-α (40 ng/ml) was added to endothelial cells for 6 hours prior to adding neutrophils or LPS (100 ng/ml) was added for 4-6 hours. […] After activation of the endothelial cells, approximately 50×10^6 neutrophils were added per well. The plates were gently rocked for 30 minutes at room temperature, followed by removal of the media and washing in serum-free media three times and then photographing of each well. Experiments to test the effects of squalamine were performed by adding squalamine at 10 μg, 1.0 μg, or 0.1 μg at the time of adding LPS or TNF-α. A second repeat dose of squalamine was added at the time of adding neutrophils. A monoclonal Ab to ICAM-1 was a positive control."}, "[12]": {"tested_on": "human melanoma 1205Lu", "assay": "Growth of human melanoma 1205Lu in RAG-1 mice", "assay_type": "in vivo", "settings": "10, 20, 40 mg/kg/d; started when tumors about 0.1 ml", "excerpt": "As apparent from FIG. 5, melanoma 1205Lu develops aggressively in RAG-1 mice after implantation."}, "[13]": {"assay": "Mouse IV PK study", "settings": "in vivo, i.v., HPLC, read-out: Half-life of clearance from the blood stream", "protocol": "To assess clearance, a mouse IV PK study was performed for compound 319 and squalamine. The compound was administered i.v. and blood samples were taken every 10 minutes. The concentration of the administered steroid was determined by HPLC analysis."}},
  "data": [
    {"smiles": "CC(CC[C@@H](OS(=O)(=O)O)C(C)C)[C@H]1CCC2C3C(CC[C@@]21C)[C@@]1(C)CC[C@H](NCCCNCCCCNCCCN)C[C@@H]1C[C@H]3O", "note": "(stereo partly shown) [Compound 1436]", "values": [
      {"measurement": "Concentration effective in suppressing growth", "setting": "[1]", "result": "10 to 12", "unit": "µg/mL"},
      {"measurement": "Concentration maintaining cells quiescent without loss of viability", "setting": "[1]", "result": "about 11 μg/ml"},
      {"measurement": "P-24 Elisa", "setting": "[2]; Conc. 0.5 μM", "result": 40561},
      {"measurement": "P-24 Elisa", "setting": "[2]; Conc. 1 μM", "result": 7464},
      {"measurement": "P-24 Elisa", "setting": "[2]; Conc. 5 μM", "result": 3426},
      {"measurement": "P-24 Elisa", "setting": "[2]; Conc. 10 μM", "result": 421},
      {"measurement": "P-24 Elisa", "setting": "[2]; Conc. 20 μM", "result": 9},
      {"measurement": "inhibition at 10 µg/mL", "setting": "[2]; Human immunodeficiency virus 1, Lymphocyte, 10 μg/ml, read-out: Inhibition of antigen synthesis", "result": 97, "unit": "%"},
      {"measurement": "Lymphocyte viability retained", "setting": "[3]; 10 μg/ml", "result": 95, "unit": "%"},
      {"measurement": "% Viability", "setting": "[3]; Conc. 0.5 μM", "result": 91, "unit": "%"},
      {"measurement": "% Viability", "setting": "[3]; Conc. 10 μM", "result": 95, "unit": "%"},
      {"measurement": "% Viability", "setting": "[3]; Conc. 20 μM", "result": 90.1, "unit": "%"},
      {"measurement": "Reduction in growth compared to untreated controls", "setting": "[4]; 1 mg/kg QTD i.p.", "result": "about 10%"},
      {"measurement": "Reduction in growth compared to untreated controls", "setting": "[4]; 5 mg/kg QTD i.p.", "result": "~50", "unit": "%"},
      {"measurement": "Suppression of growth of mice", "setting": "[4]; 10 mg/kg QTD i.p., after 6 doses, about 1 month", "result": "growth was almost completely inhibited"},
      {"measurement": "Heart rate", "setting": "[5]; 5 mg/kg", "result": "no significant increase in heart rate"},
      {"measurement": "Time to fall of arterial pressure", "setting": "[5]; 5 mg/kg", "result": "≤ 30", "unit": "s"},
      {"measurement": "Mean arterial pressure after dosing", "setting": "[5]; 5 mg/kg over ten seconds, fallen from about 100 mm Hg", "result": "about 70 mm Hg"},
      {"measurement": "Pulse pressure after dosing", "setting": "[5]; 5 mg/kg, reduced from about 40 mm", "result": "about 10 mm"},
      {"measurement": "Persistence of spontaneous beating", "setting": "[6]", "result": "up to 24 hours"}
    ]},
    {"smiles": "CC(CC[C@@H](OS(=O)(=O)O)C(C)C)[C@H]1CCC2C3C(CC[C@@]21C)[C@@]1(C)CC[C@H](NCCCNCCCCN)C[C@@H]1C[C@H]3O", "note": "(stereo partly shown) [squalamine]", "values": [
      {"measurement": "Effect on cell growth", "setting": "[7]", "result": "inhibited the growth"},
      {"measurement": "Effect on cell growth", "setting": "[8]", "result": "no effect on the growth"},
      {"measurement": "Effect on cell growth", "setting": "[9]", "result": "no effect on the growth"},
      {"measurement": "Concentration that inhibits cord formation", "setting": "[10]", "result": "about 0.1 μg/ml"},
      {"measurement": "Effect on endothelial cord formation", "setting": "[10]; 0.01 μg/ml", "result": "−"},
      {"measurement": "Effect on endothelial cord formation", "setting": "[10]; 0.1 μg/ml", "result": "+"},
      {"measurement": "Effect on endothelial cord formation", "setting": "[10]; 1.0 μg/ml", "result": "+"},
      {"measurement": "Effect on endothelial cord formation", "setting": "[10]; 10.0 μg/ml", "result": "+"},
      {"measurement": "Inhibition of neutrophil adherence", "setting": "[11]", "result": "no inhibition"},
      {"measurement": "Suppression of tumor growth", "setting": "[12]", "result": "suppress the growth of melanoma 1205Lu in RAG-1 mice in a dose-dependent fashion"},
      {"measurement": "half-life", "setting": "[13]", "result": "~35", "unit": "min"}
    ]}
  ]
}
